From patent publication US11566007B2, “Ras inhibitors” (Revolution Medicines, Inc., priority 2019, dated 2023)
Read-outs that look alike come from different tables or passages of the source.

Tests used:
[1] = tested on: NCI-H358 cells (K-Ras G12C); assay: Potency assay: pERK in NCI-H358 cells; format: cell-based, human
Outline: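 Inhibition of cellular pERK after a 4 h treatment, detected by AlphaLISA or In-Cell Western. IC50 from a four-parameter concentration-response fit.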

KRAS G12S = KRAS G12S (Homo sapiens (Human), UniProt P01116+P62937, G12S); assay: Ras-Raf (BRAF RBD) disruption / FRET / MOA assay, KRAS G12S; format: biochemical
Outline: (§1)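 Compounds, top final concentration 30 μM in 10-point 3-fold series, incubated 3 hours at 25° C with nucleotide-loaded Ras, cyclophilin A and BRAF RBD.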

KRAS G12D = KRAS G12D (Homo sapiens (Human), UniProt P01116+P62937, G12D); assay: Ras-Raf (BRAF RBD) disruption / FRET / MOA assay, KRAS G12D; format: biochemical
Outline: as §1

KRAS G12V = KRAS G12V (Homo sapiens (Human), UniProt P01116+P62937, G12V); assay: Ras-Raf (BRAF RBD) disruption / FRET / MOA assay, KRAS G12V; format: biochemical; details: read-out: IC50* KRAS G12V FRET data
Experimental: (§2) The purpose of this biochemical assay is to measure the ability of test compounds to facilitate ternary complex formation between a nucleotide-loaded Ras isoform and cyclophilin A; the resulting ternary complex disrupts binding to a BRAF^RBD construct, inhibiting Ras signaling through a RAF effector.
(§3) Compound is present in plate wells as a 10-point 3-fold dilution series starting at a final concentration of 30 μM. After incubation at 25° C. for 3 hours, a mixture of Anti-His Eu-W1024 and anti-GST allophycocyanin is then added to assay sample wells at final concentrations of 10 nM and 50 nM, respectively, and the reaction incubated for an additional 1.5 hours. […] Compounds that facilitate disruption of a Ras:RAF complex are identified as those eliciting a decrease in the TR-FRET ratio relative to DMSO control wells.
(§4) This protocol may also be executed substituting other Ras proteins or nucleotides.
(§5) The purpose of this biochemical assay was to measure the ability of test compounds to facilitate ternary complex formation between a nucleotide-loaded K-Ras isoform and Cyclophilin A; the resulting ternary complex disrupts binding to a BRAF^RBD construct, inhibiting K-Ras signaling through a RAF effector. Data is reported as IC50 values.
as §3, with “Compound was” for “Compound is”, “allophycocyanin was” for “allophycocyanin is”, “a K-Ras:RAF” for “a Ras:RAF”, “complex were” for “complex are”

NCI-H358 (K-Ras G12C) = assay: CellTiter-Glo cell viability assay, NCI-H358; format: cell-based, human; details: NCI-H358, 5-day treatment, class symbols, read-out: Additional H358 Cell Viability assay data (K-Ras G12C, IC50)
Outline: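 Compounds were dispensed directly onto K-Ras mutant cells and incubated until day 5, then plates were equilibrated to room temperature for about 30 minutes before CellTiter-Glo luminescence. Signals were normalized as (sample/average DMSO)*100 and fitted by four-parameter logistic fit.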

K-Ras G12C = K-Ras G12C (Homo sapiens (Human), UniProt P01116+P62937, G12C); assay: Ras-Raf (BRAF RBD) disruption / FRET / MOA assay, KRAS G12C; format: biochemical; details: KRAS G12C; Ras-Raf disruption/FRET/MOA assay; read-out: IC50* KRAS G12C FRET data
Experimental: as §2, §3, §4, §5
as §3, with “Compound was” for “Compound is”, “allophycocyanin was” for “allophycocyanin is”, “a K-Ras:RAF” for “a Ras:RAF”, “complex were” for “complex are”

[2] = H358 KRAS G12C, read-out: pERK EC50
[3] = Ras-Raf disruption/FRET/MOA assay; class symbols; read-out: KRAS G12S FRET data IC50
[4] = Ras-Raf disruption/FRET/MOA assay; class symbols; read-out: KRAS G12D FRET data IC50
[5] = Homo sapiens, NCI-H358, H358 KRAS G12C, read-out: pERK EC50

Chain of KRAS G12D (P01116-2 other isoform, or with tags, fused parts or gaps G12D): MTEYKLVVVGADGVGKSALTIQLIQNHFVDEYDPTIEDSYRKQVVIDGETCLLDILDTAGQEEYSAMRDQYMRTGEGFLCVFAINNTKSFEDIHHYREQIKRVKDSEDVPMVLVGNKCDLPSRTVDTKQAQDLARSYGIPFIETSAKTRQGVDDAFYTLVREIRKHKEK
Chain of KRAS G12D (P62937 whole entry): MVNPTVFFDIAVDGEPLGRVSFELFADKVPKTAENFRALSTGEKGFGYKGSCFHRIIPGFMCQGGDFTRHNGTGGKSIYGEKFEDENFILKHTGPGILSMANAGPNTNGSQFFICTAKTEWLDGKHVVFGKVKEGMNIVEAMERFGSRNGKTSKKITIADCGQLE
Chain of KRAS G12S (P01116-2 other isoform, or with tags, fused parts or gaps G12S): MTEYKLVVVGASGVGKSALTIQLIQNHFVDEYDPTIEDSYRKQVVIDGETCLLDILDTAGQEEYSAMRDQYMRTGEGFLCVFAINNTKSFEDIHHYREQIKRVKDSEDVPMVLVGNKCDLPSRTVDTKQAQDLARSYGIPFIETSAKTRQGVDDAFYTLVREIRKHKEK
Chain of KRAS G12S (P62937 whole entry): as the sequence (P62937 whole entry) above
Chain of K-Ras G12C (P01116-2 other isoform, or with tags, fused parts or gaps G12C): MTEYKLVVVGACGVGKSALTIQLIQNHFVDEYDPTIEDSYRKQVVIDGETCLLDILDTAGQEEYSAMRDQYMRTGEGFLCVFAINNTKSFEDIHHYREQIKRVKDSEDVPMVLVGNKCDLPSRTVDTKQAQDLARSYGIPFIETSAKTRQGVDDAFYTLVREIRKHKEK
Chain of K-Ras G12C (P62937 whole entry): as the sequence (P62937 whole entry) above
Chain of KRAS G12V (P01116-2 other isoform, or with tags, fused parts or gaps G12V): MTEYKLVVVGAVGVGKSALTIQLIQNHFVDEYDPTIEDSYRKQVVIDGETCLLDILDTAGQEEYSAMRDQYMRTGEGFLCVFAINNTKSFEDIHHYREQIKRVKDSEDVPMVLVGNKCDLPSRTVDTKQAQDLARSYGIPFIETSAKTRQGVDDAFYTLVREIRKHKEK
Chain of KRAS G12V (P62937 whole entry, canonical isoform): as the sequence (P62937 whole entry) above

Row | SMILES | EC50 [1, 5] [nM] | IC50 (NCI-H358 (K-Ras G12C); Homo sapiens, NCI-H358, 120 h) [nM] | other results
1 | C=CC(=O)N1CCN(C(=O)N(C)[C@H](C(=O)N[C@H]2Cc3nc(cs3)-c3ccc4c(c3)c(c(-c3cccnc3[C@H](C)OC)n4CC(F)(F)F)CC(C)(C)COC(=O)[C@@H]3CCCN(N3)C2=O)C(C)C)CC1 (atropisomer, axis not shown) [Example A464] | – | – | EC50 ([1]; Homo sapiens, NCI-H358, read-out: pERK EC50): < 5000 nM; IC50 (KRAS G12S; read-out: KRAS G12S FRET data IC50; Ras-Raf disruption/FRET/MOA assay; class symbols): 10 to 100 nM; IC50 (KRAS G12D; read-out: KRAS G12D FRET data IC50; Ras-Raf disruption/FRET/MOA assay; class symbols): 10 to 100 nM; IC50 (KRAS G12V): 10 to 100 nM
2 | C=CC(=O)N1CCC(F)(C(=O)N(C)[C@H](C(=O)N[C@H]2Cc3cccc(c3)-c3ccc4c(c3)c(c(-c3cccnc3[C@H](C)OC)n4CC)CC(C)(C)COC(=O)[C@@H]3CCCN(N3)C2=O)C(C)C)CC1 (atropisomer, axis not shown) [Example A519] | – | – | EC50 [1, 2]: < 5000 nM; IC50 (NCI-H358 (K-Ras G12C)): < 10 nM; IC50 (KRAS G12S; [3]): 100 to 1000 nM; IC50 (KRAS G12D; [4]): 1000 to 10000 nM
3 | C=CC(=O)N1CC[C@H](C(=O)N(C)[C@H](C(=O)N[C@H]2Cc3cc(O)cc(c3)-c3ccc4c(c3)c(c(-c3cc(F)cnc3COC)n4CC)CC(C)(C)COC(=O)[C@@H]3CCCN(N3)C2=O)C(C)C)C1 [Example A82] | < 5000 | 10 to 100 | –
4 | C=CC(=O)N1CC[C@H](C(=O)N(C)[C@H](C(=O)N[C@H]2Cc3cc(O)cc(c3)-c3ccc4c(c3)c(c(-c3cncc(COC)c3)n4CC)CC(C)(C)COC(=O)[C@@H]3CCCN(N3)C2=O)C(C)C)C1 [Example A83] | < 5000 | 10 to 100 | –
5 | C=CC(=O)N1CC[C@H](C(=O)N(C)[C@H](C(=O)N[C@H]2Cc3cc(O)cc(c3)-c3ccc4c(c3)c(c(-c3ncccc3COC)n4CC)CC(C)(C)COC(=O)[C@@H]3CCCN(N3)C2=O)C(C)C)C1 [Example A84] | < 5000 | 100 to 1000 | –
6 | C=CC(=O)N1CC[C@H](C(=O)N(C)[C@H](C(=O)N[C@H]2Cc3cc(O)cc(c3)-c3ccc4c(c3)c(c(-c3nccnc3COC)n4CC)CC(C)(C)COC(=O)[C@@H]3CCCN(N3)C2=O)C(C)C)C1 [Example A85] | < 5000 | 100 to 1000 | –
7 | C=CC(=O)N1CC[C@H](C(=O)N(C)[C@H](C(=O)N[C@H]2Cc3cc(O)cc(c3)-c3ccc4c(c3)c(c(-c3ccncc3)n4C(C)(C)C#N)CC(C)(C)COC(=O)[C@@H]3CCCN(N3)C2=O)C(C)C)C1 [Example A86] | < 5000 | 10 to 100 | –
8 | CCn1c(-c2cnccc2COC)c2c3cc(ccc31)-c1cc(O)cc(c1)C[C@H](NC(=O)[C@H](C(C)C)N(C)C(=O)[C@H]1CCN(C(=O)/C=C/CN(C)C)C1)C(=O)N1CCC[C@H](N1)C(=O)OCC(C)(C)C2 [Example A87] | < 5000 | 10 to 100 | –
9 | C=CC(=O)N1CC[C@H](C(=O)N(C)[C@H](C(=O)N[C@H]2Cc3cc(O)cc(c3)-c3ccc4c(c3)c(c(-c3ccc(N5CCN(C)CC5)nc3)n4CC)CC(C)(C)COC(=O)[C@@H]3CCCN(N3)C2=O)C(C)C)C1 [Example A89, (2S)-N-[(8S,14S)-22-ethyl-4-hydroxy-18,18-dimethyl-21-[6-(4-methylpiperazin-1-yl)pyridin-3-yl]-9,15-dioxo-16-oxa-10,22,28-triazapentacyclo[18.5.2.1^2,^6.1^10,^14.0^23,^27]nonacosa-1(26),2,4,6(29),20,23(27),24-heptaen-8-yl]-3-methyl-2-{N-methyl-1-[(3S)-1-(prop-2-enoyl)pyrrolidin-3-yl]formamido}butanamide] | < 5000 | 10 to 100 | –
10 | C=CC(=O)N1CC[C@H](C(=O)N(C)[C@H](C(=O)N[C@H]2Cc3cc(O)cc(c3)-c3ccc4c(c3)c(c(-c3cnccc3COC)n4CC)CC(C)(C)COC(=O)[C@@H]3CCCN(N3)C2=O)C(C)C)C1 [Example A91] | < 5000 | < 10 | –
11 | C=CC(=O)N1CC[C@H](C(=O)N(C)[C@H](C(=O)N[C@H]2Cc3cc(O)cc(c3)-c3ccc4c(c3)c(c(-c3cccnc3CN(C)C)n4CC)CC(C)(C)COC(=O)[C@@H]3CCCN(N3)C2=O)C(C)C)C1 [Example A92] | < 5000 | 100 to 1000 | –
12 | C=CC(=O)N1CC[C@H](C(=O)N(C)[C@H](C(=O)N[C@H]2Cc3cc(O)cc(c3)-c3ccc4c(c3)c(c(-c3cccnc3COC)n4CC#N)CC(C)(C)COC(=O)[C@@H]3CCCN(N3)C2=O)C(C)C)C1 [Example A93] | < 5000 | 10 to 100 | –
13 | C=CC(=O)N1CC[C@H](C(=O)N(C)[C@H](C(=O)N[C@H]2Cc3nc(cs3)-c3ccc4c(c3)c(c(-c3cccnc3COC)n4CC)CC(C)(C)COC(=O)[C@@H]3CCCN(N3)C2=O)C(C)C)C1 [Example A94] | < 5000 | 10 to 100 | –
14 | CCn1c(-c2cccnc2COC)c2c3cc(ccc31)-c1cc(O)cc(c1)C[C@H](NC(=O)[C@H](C(C)C)N(C)C(=O)[C@H]1CCN(C(=O)C#CCN3CCOCC3)C1)C(=O)N1CCC[C@H](N1)C(=O)OCC(C)(C)C2 [Example A95, (2S)-N-[(8S,14S)-22-ethyl-4-hydroxy-21-[2-(methoxymethyl)pyridin-3-yl]-18,18-dimethyl-9,15-dioxo-16-oxa-10,22,28-triazapentacyclo[18.5.2.1^2,^6.1^10,^14.0^23,^27]nonacosa-1(26),2,4,6(29),20,23(27),24-heptaen-8-yl]-3-methyl-2-{N-methyl-1-[(3S)-1-[4-(morpholin-4-yl)but-2-ynoyl]pyrrolidin-3-yl]formamido}butanamide] | < 5000 | 10 to 100 | –
15 | CCn1c(-c2cccnc2COC)c2c3cc(ccc31)-c1cc(O)cc(c1)C[C@H](NC(=O)[C@H](C(C)C)N(C)C(=O)[C@H]1CCN(C(=O)C#CCN(C)C)C1)C(=O)N1CCC[C@H](N1)C(=O)OCC(C)(C)C2 [Example A96] | < 5000 | < 10 | –
16 | CCn1c(-c2cccnc2COC)c2c3cc(ccc31)-c1cc(O)cc(c1)C[C@H](NC(=O)[C@H](C(C)C)N(C)C(=O)C1CN(C(=O)C#CCN(C)C)C1)C(=O)N1CCC[C@H](N1)C(=O)OCC(C)(C)C2 [Example A97] | < 5000 | 10 to 100 | –
17 | C=CC(=O)N1CC[C@H](C(=O)N(C)[C@H](C(=O)N[C@H]2Cc3cc(O)cc(c3)-c3ccc4c(c3)c(c(-c3ccc(C5CCN(C)CC5)nc3)n4CC)CC(C)(C)COC(=O)[C@@H]3CCCN(N3)C2=O)C(C)C)C1 [Example A98] | < 5000 | 10 to 100 | –
18 | C=CC(=O)N1CC[C@H](C(=O)N(C)[C@H](C(=O)N[C@H]2Cc3cc(O)cc(c3)-c3ccc4c(c3)c(c(-c3cnn(C)c3)n4CC)CC(C)(C)COC(=O)[C@@H]3CCCN(N3)C2=O)C(C)C)C1 [Example A99] | < 5000 | 10 to 100 | –
19 | CCn1c(-c2cccnc2[C@H](C)OC)c2c3cc(ccc31)-c1cc(O)cc(c1)C[C@H](NC(=O)[C@H](C(C)C)N(C)C(=O)c1nc(NC(=O)/C=C/CN(C)C)cs1)C(=O)N1CCC[C@H](N1)C(=O)OCC(C)(C)C2 [Example A258] | – | – | EC50 [1, 2]: < 5000 nM; IC50 (NCI-H358 (K-Ras G12C)): 100 to 1000 nM; IC50 (KRAS G12S; [3]): 1000 to 10000 nM
20 | C=CC(=O)N1CC[C@H](C(=O)N(C)[C@H](C(=O)NC2C[C@H]3CN(CCCO3)c3ccc4c(c3)c(c(-c3cccnc3[C@H](C)OC)n4CC)CC(C)(C)COC(=O)[C@@H]3CCCN(N3)C2=O)C(C)C)C1 (some centres unmarked) [Example A429] | – | – | IC50 (NCI-H358 (K-Ras G12C)): > 1000 nM; IC50 (K-Ras G12C): > 10000 nM; IC50 (KRAS G12S; [3]): > 10000 nM; IC50 (KRAS G12D; [4]): > 10000 nM
21 | C=CC(=O)N1CC[C@H](C(=O)N(C)[C@H](C(=O)N[C@H]2Cc3cc(N)cc(c3)-c3ccc4c(c3)c(c(-c3ccccc3CCOC)n4CC)CC(C)(C)COC(=O)[C@@H]3CCCN(N3)C2=O)C(C)C)C1 [Examples A002] | – | – | IC50 (K-Ras G12C): 1000 to 10000 nM; IC50 (KRAS G12S; [3]): > 10000 nM; IC50 (KRAS G12D; [4]): > 10000 nM
